ChEMBL document CHEMBL1201862, “PubChem BioAssay data set” (2004)
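Cells were grown in 96-well plates and exposed to each compound for 48 hours at five concentrations; endpoints were interpolated linearly between bracketing concentrations, or set to the highest concentration if not reached. Abbreviation: GI50, concentration required for 50% inhibition of growth.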 The source made the active and inactive calls. No stated cut-off is given here; in the data, active = GI50 up to about 1.1 µM and inactive = higher.

Columns and labels:
Assay in all cases: growth of human tumour cells (NCI), 48 h
SF-295 = system: SF-295
IGROV-1 = system: IGROV-1
OVCAR-8 = system: OVCAR-8
SK-OV-3 = system: SK-OV-3
HCT-116 = system: HCT-116
SF-268 = system: SF-268
UO-31 = system: UO-31
RPMI-8226 = system: RPMI-8226
OVCAR-4 = system: OVCAR-4
MCF7 = system: MCF7
SF-539 = system: SF-539
HL-60 = system: HL-60
KM12 = system: KM12
M14 = system: M14
HOP-92 = system: HOP-92
HOP-62 = system: HOP-62
SW-620 = system: SW-620
Malme-3M = system: Malme-3M
BT-549 = system: BT-549
COLO 205 = system: COLO 205

Measured: GI50

O=C(c1cc2c(c3ccccc13)NCCN=C2C(F)(F)F)C(F)(F)F
inactive: SF-295 16 µM | IGROV-1 29.6 µM | OVCAR-8 34.5 µM | SK-OV-3 37.4 µM | HCT-116 26.7 µM | SF-268 24 µM | UO-31 51.9 µM | RPMI-8226 6.95 µM | OVCAR-4 38.7 µM | MCF7 19.2 µM | SF-539 20.1 µM | HL-60 16.3 µM | KM12 19.4 µM | M14 24.9 µM | HOP-92 21.9 µM | HOP-62 19.7 µM | SW-620 35.2 µM

CSc1ncc2c(n1)sc1c(=O)n(-c3ccccc3)cnc12
inactive: SF-295 > 100 µM | IGROV-1 > 100 µM | OVCAR-8 > 100 µM | SK-OV-3 > 100 µM | HCT-116 > 100 µM | SF-268 > 100 µM | UO-31 > 100 µM | Malme-3M > 100 µM | RPMI-8226 > 100 µM | OVCAR-4 > 100 µM | BT-549 > 100 µM | KM12 > 100 µM | M14 > 100 µM | HOP-92 > 100 µM | HOP-62 > 100 µM | SW-620 > 100 µM | COLO 205 > 100 µM

C=CC[C@@H](N)C(=O)N(C)[C@@H](C)[C@@H](O)c1ccccc1
inactive: SF-295 > 100 µM | IGROV-1 82.8 µM | OVCAR-8 > 100 µM | SK-OV-3 > 100 µM | HCT-116 > 100 µM | SF-268 > 100 µM | UO-31 > 100 µM | OVCAR-4 > 100 µM | BT-549 > 100 µM | SF-539 > 100 µM | HL-60 > 100 µM | KM12 > 100 µM | M14 > 100 µM | HOP-92 54.6 µM | HOP-62 > 100 µM | SW-620 > 100 µM | COLO 205 > 100 µM

O=C(O)c1cccc(NC(C(=O)c2ccccc2)c2ccccc2)c1 (stereo not given)
inactive: SF-295 > 100 µM | IGROV-1 > 100 µM | OVCAR-8 > 100 µM | SK-OV-3 > 100 µM | HCT-116 > 100 µM | SF-268 > 100 µM | UO-31 > 100 µM | Malme-3M > 100 µM | RPMI-8226 > 100 µM | MCF7 > 100 µM | SF-539 > 100 µM | HL-60 > 100 µM | KM12 > 100 µM | M14 > 100 µM | HOP-92 34 µM | HOP-62 > 100 µM | SW-620 > 100 µM | COLO 205 > 100 µM

Cc1cccc(NC(=O)c2cc3cc(/N=N/c4ccccc4Cl)ccc3oc2=O)c1
inactive: SF-295 40 µM | IGROV-1 32.1 µM | OVCAR-8 27 µM | SK-OV-3 88.7 µM | HCT-116 23.7 µM | SF-268 23.3 µM | UO-31 13.3 µM | Malme-3M 45.4 µM | RPMI-8226 19.9 µM | OVCAR-4 29.4 µM | SF-539 30.3 µM | HL-60 > 100 µM | KM12 15.4 µM | M14 26.8 µM | HOP-92 33.3 µM | HOP-62 46.2 µM | SW-620 54.1 µM | COLO 205 57.7 µM

CCCCCCCCCCCCCCCCCCNc1nc(=O)n(C2CC(OP(=O)(O)OCC3OC(n4cc(F)c(=O)[nH]c4=O)CC3O)C(CO)O2)cc1F (stereo not given)
inactive: SF-295 13.5 µM | IGROV-1 46.3 µM | OVCAR-8 17.5 µM | SK-OV-3 31.7 µM | HCT-116 47.1 µM | SF-268 12.4 µM | UO-31 13.5 µM | RPMI-8226 11.2 µM | OVCAR-4 > 100 µM | MCF7 9.86 µM | SF-539 6.67 µM | HL-60 5.18 µM | KM12 11.2 µM | M14 19.5 µM | HOP-92 5.33 µM | HOP-62 15.2 µM | SW-620 18.8 µM | COLO 205 20.7 µM

Cn1c(C(C#N)c2nc(Cl)ncc2Br)nc2ccccc21 (stereo not given)
inactive: SF-295 > 100 µM | IGROV-1 > 100 µM | OVCAR-8 > 100 µM | SK-OV-3 > 100 µM | HCT-116 > 100 µM | SF-268 > 100 µM | UO-31 > 100 µM | Malme-3M > 100 µM | RPMI-8226 > 100 µM | OVCAR-4 > 100 µM | BT-549 > 100 µM | SF-539 44.5 µM | KM12 > 100 µM | M14 > 100 µM | HOP-92 > 100 µM | HOP-62 > 100 µM | SW-620 > 100 µM | COLO 205 > 100 µM

CC1(C)OC2OC(COC(=O)c3ccc(C#N)cc3)C3OC(C)(C)OC3C2O1 (stereo not given)
inactive: SF-295 > 75 µM | IGROV-1 > 75 µM | OVCAR-8 > 75 µM | SK-OV-3 > 75 µM | HCT-116 > 75 µM | SF-268 > 75 µM | UO-31 46.9 µM | Malme-3M 61 µM | RPMI-8226 57.8 µM | OVCAR-4 > 75 µM | BT-549 > 75 µM | MCF7 > 75 µM | SF-539 > 75 µM | KM12 > 75 µM | M14 > 75 µM | HOP-62 > 75 µM | SW-620 > 75 µM | COLO 205 > 75 µM

O=C(COc1ccc(Cl)c(Cl)c1)N(Cc1ccccc1)Cc1ccc[n+](Cc2ccc(Cl)cc2S(=O)(=O)F)c1
inactive: SF-295 > 100 µM | IGROV-1 40.6 µM | OVCAR-8 > 100 µM | SK-OV-3 > 100 µM | HCT-116 > 100 µM | SF-268 > 100 µM | UO-31 > 100 µM | Malme-3M 20 µM | RPMI-8226 13.3 µM | OVCAR-4 > 100 µM | MCF7 46.3 µM | SF-539 12.9 µM | HL-60 30.9 µM | KM12 23.4 µM | M14 38.5 µM | HOP-92 50.8 µM | HOP-62 > 100 µM | SW-620 54.2 µM | COLO 205 72.3 µM

Cc1n[nH]/c(=N\S(=O)(=O)c2ccc(/N=N/c3c(O)c(C(=O)O)cc4ccccc34)cc2)s1
inactive: SF-295 > 100 µM | IGROV-1 > 100 µM | OVCAR-8 > 100 µM | SK-OV-3 > 100 µM | HCT-116 > 100 µM | SF-268 > 100 µM | UO-31 > 100 µM | Malme-3M > 100 µM | RPMI-8226 > 100 µM | OVCAR-4 > 100 µM | MCF7 > 100 µM | SF-539 > 100 µM | HL-60 > 100 µM | KM12 > 100 µM | M14 > 100 µM | HOP-92 > 100 µM | HOP-62 > 100 µM | SW-620 > 100 µM | COLO 205 > 100 µM

CC1(C)OC(=O)C(C)(C)C(=O)O1
inactive: SF-295 > 100 µM | IGROV-1 > 100 µM | OVCAR-8 > 100 µM | SK-OV-3 > 100 µM | HCT-116 > 100 µM | SF-268 > 100 µM | UO-31 > 100 µM | Malme-3M > 100 µM | OVCAR-4 > 100 µM | BT-549 > 100 µM | MCF7 > 100 µM | SF-539 > 100 µM | HL-60 > 10 µM | KM12 > 100 µM | M14 > 100 µM | HOP-62 > 100 µM | SW-620 > 100 µM | COLO 205 > 100 µM

Cc1cccc(NC(=O)CCl)c1
inactive: SF-295 > 10 µM | IGROV-1 > 10 µM | OVCAR-8 9.53 µM | SK-OV-3 > 10 µM | HCT-116 6.95 µM | SF-268 8.69 µM | Malme-3M 3.93 µM | RPMI-8226 > 10 µM | OVCAR-4 3.29 µM | BT-549 > 10 µM | MCF7 > 10 µM | SF-539 9.31 µM | HL-60 3.56 µM | KM12 > 10 µM | M14 8.77 µM | HOP-62 > 10 µM | SW-620 > 10 µM | COLO 205 > 10 µM

N#C/C(=C\c1ccccc1Br)C(=O)c1ccccc1
inactive: SF-295 31 µM | IGROV-1 > 10 µM | OVCAR-8 11.1 µM | SK-OV-3 > 100 µM | HCT-116 2.81 µM | SF-268 > 46 µM | UO-31 > 38.5 µM | Malme-3M > 53.1 µM | RPMI-8226 9.86 µM | OVCAR-4 7.14 µM | SF-539 > 91.2 µM | HL-60 1.28 µM | KM12 > 54.3 µM | M14 > 34.8 µM | HOP-92 > 100 µM | HOP-62 39.7 µM | SW-620 2.04 µM | COLO 205 > 65.9 µM

CC1=CC(C)C(C)N(CCNC(=O)Nc2ccccc2)c2ccccc21 (stereo not given)
inactive: SF-295 10 µM | IGROV-1 28.2 µM | OVCAR-8 15.5 µM | SK-OV-3 19.1 µM | HCT-116 13.9 µM | SF-268 27.5 µM | UO-31 27.2 µM | Malme-3M 24.6 µM | RPMI-8226 14.6 µM | OVCAR-4 27.4 µM | MCF7 17.4 µM | SF-539 21.4 µM | KM12 26.8 µM | M14 23.8 µM | HOP-62 22.2 µM | SW-620 26.5 µM | COLO 205 16.6 µM

C=C(C)[C@@H]1CC[C@]2(C(=O)OC)CC[C@]3(C)[C@H](CC[C@@H]4[C@@]5(C)CC[C@H](O)C(C)(C)[C@@H]5CC[C@]43C)[C@@H]12 [METHYL BETULINATE]
inactive: SF-295 18.4 µM | IGROV-1 18.1 µM | OVCAR-8 21.5 µM | HCT-116 17.4 µM | SF-268 21.4 µM | UO-31 22.8 µM | Malme-3M 22.5 µM | MCF7 19.4 µM | SF-539 13.7 µM | HL-60 35.5 µM | KM12 15.6 µM | M14 35.4 µM | HOP-92 19.4 µM | HOP-62 18.8 µM | SW-620 19.6 µM
